Test results from article PMC8386730, “Pyrrolidine-based 3-deoxysphingosylphosphorylcholine analogs as possible candidates against neglected tropical diseases (NTDs): identification of hit compounds towards development of potential treatment of Leishmania donovani” (Journal of Enzyme Inhibition and Medicinal Chemistry, 2021).
Like-named read-outs stand apart in the source and are kept apart here.

What was measured:
[1] = tested on: L. donovani promastigotes; assay: Growth inhibition of L. donovani promastigotes (resazurin-based assay); assay type: cell-based, Leishmania donovani; design: Inhibition at both 50 and 25 µM concentrations: unit: %; details: for inhibition at 25 µM / inhibition at 50 µM / IC50: Leishmania donovani, 72 h, incubation 3 days; for inhibition at 25 µM / inhibition at 50 µM: relative to control; for inhibition at 25 µM: read-out: % Inhibition at 25 µM concentration; for inhibition at 50 µM: read-out: % Inhibition at 50 µM concentration; for IC50: extracellular promastigotes, duplicates, read-out: IC50 ± SD, growth of L. donovani promastigotes; for Potency against promastigotes (in words): dose-response evaluation
Method: Out of 20 known Leishmania species pathogenic to humans, L. donovani, which causes visceral leishmaniasis, is the most fatal. Consequently, an in vitro model of L. donovani promastigotes[26] was selected to evaluate the activity of the synthesised pyrrolidine-based 3-deoxysphingosylphosphorylcholine analogs 1e–i, 2a–f, 3a–f at two concentration (50 and 25 µM) employing miltefosine and erufosine (ErPC; erucylphosphocholine) as reference standards using a resazurin-based assay.
For comparison, erufosine and miltefosine were used as reference standards.
L. donovani MHOM/SD/62/1S-CL2D parasites were cultured as promastigotes at 28 °C in M199 medium (Sigma-Aldrich, St. Louis, MO, USA) with 40 mM HEPES, 0.1 mM adenine, 0.0001% biotin, and 4.62 mM NaHCO3 supplemented with 10% foetal bovine serum (FBS, Gibco, Carlsbad, CA, USA), […] penicillin (Gibco), and 100 µg/mL streptomycin (Gibco). Parasites were sub-cultured every 3 or 4 days and maintained for 10 passages.
The plates were analysed using a Victor3TM plate reader (PerkinElmer, Inc., Waltham, MA, USA) at 590 nm (emission) and 530 nm (excitation). Miltefosine and erufosine were used as the reference standards. All measured and calculated values are the averages of duplicates. The dose-response curves were generated by GraphPad Prism 6 software using a sigmoidal dose-response equation with a variable hill slope option.

L. major promastigotes = tested on: L. major promastigotes; design: method as in PMID 21267500; details: cited from earlier work
[2] = tested on: intracellular L. donovani amastigotes; assay: Intracellular L. donovani amastigotes in infected THP-1 cells (image-based); assay type: cell-based; details: Leishmania donovani, 72 h, duplicates, read-out: Intracellular L. donovani IC50 ± SD
Text: (§1) As the extracellular promastigotes form represents the insect stage of the parasite, assessment of activity is needed to confirm activity against the intracellular amastigotes form, which is the human host form (mammalian host form). In addition, a preliminary assessment of selectivity and safety might be desirable to evaluate the quality of hit compounds. Accordingly, compound 1e and its enantiomer; 1a, in parallel with standard drugs miltefosine and erufosine were submitted for evaluation in intracellular amastigotes model using infected THP-1 cells; human monocytic cell line derived from an acute monocytic leukaemia. In addition, cytotoxicity of tested compounds and standards were evaluated against THP-1 cells and normal human embryonic kidney cells; HEK293T to evaluate selectivity and safety. PMA-treated THP-1 human monocytic cells were seeded at 0.8 × 10^4 cells per well in a 384-well culture plate (Greiner Bio-One, Kremsmünster, Austria) in RPMI-1640 complete medium supplemented with 10% FBS. After 48 h of incubation at 37 °C in the presence of 5% CO2, infected THP-1 cells were treated with miltefosine (at 80 µM, positive control), and tested compounds (at 200 µM). The negative control consisted of THP-1 infected with the parasite with only 0.5% DMSO. After 72 h, the cells that were infected and treated with the drug were washed with serum-free RPMI-1640 medium. The cells and parasites were stained using 5 µM DAPI and 4% PFA. The images were acquired based on reading using an Operetta® automated microscope (PerkinElmer, Inc., Waltham, MA 02451, USA). They were further analysed using Columbus^TM (PerkinElmer, Inc. Waltham, MA, USA) software to quantify parasite numbers, and host cell numbers. In brief, large-sized nucleus of host cells was first detected using DAPI signal and the host cell boundary masking was performed using the low-intensity signals from cytosols. Then the small-sized nucleus signal by DAPI was used to identify parasites within the area of the masked host cell. The DRC results were further assessed in a dose-dilution manner (two-fold serial dilution for 10 points starting from 200 µM).

[3] = Cytotoxicity against THP-1 host cells; assay type: cell-based, human; details: human, PMA-treated THP-1 monocytic cells infected with the parasite; THP-1 cells, duplicates; read-out: THP-1 cell CC50 ± SD
Text: as §1

THP-1 cells = assay: Cytotoxicity against THP-1 host cells; assay type: cell-based, human; details: CC50 THP-1 divided by IC50 intracellular L. donovani
Text: as §1

[4] = Cytotoxicity against HEK293T cells (resazurin); assay type: cell-based; details: human, duplicates, read-out: HEK293T CC50 ± SD
Text: As the extracellular promastigotes form represents the insect stage of the parasite, assessment of activity is needed to confirm activity against the intracellular amastigotes form, which is the human host form (mammalian host form). In addition, a preliminary assessment of selectivity and safety might be desirable to evaluate the quality of hit compounds. Accordingly, compound 1e and its enantiomer; 1a, in parallel with standard drugs miltefosine and erufosine were submitted for evaluation in intracellular amastigotes model using infected THP-1 cells; human monocytic cell line derived from an acute monocytic leukaemia. In addition, cytotoxicity of tested compounds and standards were evaluated against THP-1 cells and normal human embryonic kidney cells; HEK293T to evaluate selectivity and safety. Cytotoxicity against HEK293T cell growth was assayed by measuring the conversion of resazurin to resorufin. The assays were performed in 384-well plates that were seeded with HEK293T cells (1000 cells per well). After seeding, the cells were exposed to the compounds for 3 days. Resazurin sodium salt (200 µM; R7017; Sigma-Aldrich, St. Louis, MO, USA) was then added, and the samples were incubated for 5 h. After incubation, the […] were fixed using 4% paraformaldehyde, and the plates were analysed using a Victor3TM plate reader (PerkinElmer, Inc., Waltham, MA, USA) at 590 nm (emission) and 530 nm (excitation). Miltefosine and saponin were used as the reference drugs for the HEK293T growth inhibition.

[5] = tested on: L. donovani promastigotes; design: method as in PMID 22506086; details: literature value; read-out: Reported IC50 against L. donovani promastigotes; cited from earlier work

IC50 [1]	Compound	inhibition at 25 µM [1]	inhibition at 50 µM [1]	Activity at both 50 and 25 µM concentrations (in words) [1]	also measured
	CCCCCCCC/C=C\CCCCCCCC(=O)N1CCC[C@@H]1COP(=O)([O-])OCC[N+](C)(C)C [Compound 1c]	10%	51%		
68.47 ± 0.04 µM	CCCCCCCC/C=C\CCCCCCCCCCCC(=O)N1CCC[C@H]1COP(=O)([O-])OCC[N+](C)(C)C [Compound 1g]	110%	109%	highly active	
46.65 ± 0.45 µM	CCCCCCCC/C=C\CCCCCCCCCCCC(=O)N1CCC[C@@H]1COP(=O)([O-])OCC[N+](C)(C)C [Compound 1d]	107%	108%		Inhibition at both 50 and 25 µM concentrations [1]: ≥ 100
	CCCCCCCCCCCCC/C=C/C[C@@H](N)CO [Compound 26an]				Cytotoxicity against L. major promastigotes (in words) (L. major promastigotes): significant cytotoxicity
4.94 ± 0.47 µM	CCCCCCCCCCCCCCCCOP(=O)([O-])OCC[N+](C)(C)C [Miltefosine, miltefosine, reference compound]	100%	100%		IC50 [2]: 2.55 ± 0.63 µM; CC50 at 72 h [3]: 40.8 ± 3.32 µM; Selectivity index (THP-1 cells): 16.0; CC50 at 3 days [4]: > 200 µM; IC50 [5]: 3.1 µM
	CCCCC/C=C\C/C=C\CCCCCCCC(=O)N1CCC[C@H]1COP(=O)([O-])OCC[N+](C)(C)C [Compound 1h]	-18%	0%	completely inactive	
	CCCCCC/C=C\CCCCCCCC(=O)N1CC[C@H](COP(=O)([O-])OCC[N+](C)(C)C)C1 [Compound 2b]	27%	98%		
	CC/C=C\C/C=C\C/C=C\CCCCCCCC(=O)N1CC[C@H](COP(=O)([O-])OCC[N+](C)(C)C)C1 [Compound 2f]	0%	9%	completely inactive	
> 100 µM	CCCCCCCC/C=C\CCCCCCCCCCCC(=O)N1CC[C@H](COP(=O)([O-])OCC[N+](C)(C)C)C1 [Compound 2d]	107%	109%	highly active	Potency against promastigotes (in words) [1]: poor potency
	CCCCC/C=C\C/C=C\CCCCCCCC(=O)N1CC[C@H](COP(=O)([O-])OCC[N+](C)(C)C)C1 [Compound 2e]	34%	101%		
	CCCCCC/C=C\CCCCCCCC(=O)N1CC[C@@H](OP(=O)([O-])OCC[N+](C)(C)C)C1 [Compound 3b]	67%	90%		
54.6 ± 2.02 µM	CCCCCCCCCCCCCCCC(=O)N1CC[C@H](COP(=O)([O-])OCC[N+](C)(C)C)C1 [Compound 2a]	107%	108%	highly active	
> 100 µM	CCCCCCCC/C=C\CCCCCCCC(=O)N1CC[C@@H](OP(=O)([O-])OCC[N+](C)(C)C)C1 [Compound 3c]	106%	106%	maintained high activity	Potency against promastigotes (in words) [1]: weak potency
	CC/C=C\C/C=C\C/C=C\CCCCCCCC(=O)N1CCC[C@H]1COP(=O)([O-])OCC[N+](C)(C)C [Compound 1i]	-16%	1%	completely inactive	
	CCCCC/C=C\C/C=C\CCCCCCCC(=O)N1CC[C@@H](OP(=O)([O-])OCC[N+](C)(C)C)C1 [Compound 3e]	0%	69%		
	CCCCCCCC/C=C\CCCCCCCC(=O)N1CC[C@H](COP(=O)([O-])OCC[N+](C)(C)C)C1 [Compound 2c]	-19%	107%		
> 100 µM	CCCCCCCCCCCCCCCC(=O)N1CC[C@@H](OP(=O)([O-])OCC[N+](C)(C)C)C1 [Compound 3a]	108%	109%	highly active	Potency against promastigotes (in words) [1]: weak potency
	CC/C=C\C/C=C\C/C=C\CCCCCCCC(=O)N1CC[C@@H](OP(=O)([O-])OCC[N+](C)(C)C)C1 [Compound 3f]	-14%	1%	completely inactive	
	CCCCCCCC/C=C\CCCCCCCC(=O)N1CCC[C@H]1COP(=O)([O-])OCC[N+](C)(C)C [Compound 1f]	65%	108%		
66.1 ± 3.61 µM	CCCCCC/C=C\CCCCCCCC(=O)N1CCC[C@@H]1COP(=O)([O-])OCC[N+](C)(C)C [Compound 1b]	108%	109%		Inhibition at both 50 and 25 µM concentrations [1]: ≥ 100
> 100 µM	CCCCCCCC/C=C\CCCCCCCCCCCC(=O)N1CC[C@@H](OP(=O)([O-])OCC[N+](C)(C)C)C1 [Compound 3d]	107%	104%	highly active	Potency against promastigotes (in words) [1]: poor potency
28.3 ± 1.38 µM	CCCCCCCCCCCCCCCC(=O)N1CCC[C@H]1COP(=O)([O-])OCC[N+](C)(C)C [Compound 1e]	107%	107%	highly active	IC50 [2]: 14.3 ± 2.03 µM; CC50 at 72 h [3]: 15.8 ± 3.23 µM; Selectivity index (THP-1 cells): 1.1; CC50 at 3 days [4]: 45.1 ± 5.01 µM
52.6 ± 1.44 µM	CCCCCCCCCCCCCCCC(=O)N1CCC[C@@H]1COP(=O)([O-])OCC[N+](C)(C)C [Compound 1a]	107%	108%		Inhibition at both 50 and 25 µM concentrations [1]: ≥ 100; IC50 [2]: 11.3 ± 1.81 µM; CC50 at 72 h [3]: 25.3 ± 3.56 µM; Selectivity index (THP-1 cells): 2.2; CC50 at 3 days [4]: 30.6 ± 2.31 µM
9.75 ± 2.41 µM	CCCCCCCC/C=C\CCCCCCCCCCCCOP(=O)([O-])OCC[N+](C)(C)C [Erufosine, erucylphosphocholine, reference compound]	106%	108%		IC50 [2]: 3.61 ± 1.05 µM; CC50 at 72 h [3]: 3.94 ± 1.02 µM; Selectivity index (THP-1 cells): 1.1; CC50 at 3 days [4]: 40.8 ± 3.36 µM; IC50 [5]: 13.3 µM
